Patent US11077199B2, “Albumin binding peptide conjugates and methods thereof” (Massachusetts Institute of Technology, priority 2017, dated 2021)

Tests used:
[1] = tested on: CD44hi H-2Db gp100 tetramer+ CD8+ T cells; assay: Immunization with ABP-antigen constructs, tetramer staining of peripheral blood; format: in vivo, C57BL6/J mice; details: for percentage CD44hi tetramer+ of total live CD8+ T cells: 5 nmol with 25 ug c-di-GMP adjuvant, prime day 0, boost day 14, peripheral blood day 21, mean response
From the text: To test whether these albumin-binding peptides could enhance vaccination, a model melanoma antigen called gp100 was utilized. Vaccination against gp100 has shown significant preclinical activity (van Stipdonk, M. J. B. et al. Design of agonistic altered peptides for the robust induction of CTL directed towards H-2Db in complex with the melanoma-associated epitope gp100. Cancer research 69, 7784-7792, doi:10.1158/0008-5472.CAN-09-1724 (2009)) and has also been used clinically (Schwartzentruber, D. J. et al. gp100 Peptide Vaccine and Interleukin-2 in Patients with Advanced Melanoma. New England Journal of Medicine 364, 2119-2127, doi:10.1056/NEJMoa1012863 (2011)). An altered peptide ligand form of gp100 called EGP (sequence
To test the immunogenicity of ABP-modified peptides, C57BL6/J mice (Jackson Laboratories) were immunized with 5 nmol either ABP-G4S-EGP, ABP-PEG2000-EGP, or unmodified EGP peptide. Vaccines were formulated with 25 ug c-di-GMP (Invivogen) for adjuvant in 100 uL total volume (with sterile saline as diluent). Mice were primed on day 0, boosted on day 14, and tetramer staining was performed on day 21 to assess T cell priming in peripheral blood. (FIG. 5). Briefly, blood was isolated retro-orbitally, subjected to lysis to remove red blood cells, and incubated with tetramer (H-2Db gp100, MBL) at room temperature for 30 minutes, followed by surface staining for CD8 and CD44. DAPI was included as a viability marker, and cells were run on the LSR Fortessa (BD Biosciences). Responses were quantified as the percentage CD44^hi tetramer+ of total live CD8+ T cells. […] (FIG. 6).

MHC (H2-Db) = target: T1, MHC (H2-Db) (Mus musculus, UniProt P01899); details: H2-Db epitope; van Stipdonk et al. 2009; cited from earlier work
T1 sequence (P01899 25-362): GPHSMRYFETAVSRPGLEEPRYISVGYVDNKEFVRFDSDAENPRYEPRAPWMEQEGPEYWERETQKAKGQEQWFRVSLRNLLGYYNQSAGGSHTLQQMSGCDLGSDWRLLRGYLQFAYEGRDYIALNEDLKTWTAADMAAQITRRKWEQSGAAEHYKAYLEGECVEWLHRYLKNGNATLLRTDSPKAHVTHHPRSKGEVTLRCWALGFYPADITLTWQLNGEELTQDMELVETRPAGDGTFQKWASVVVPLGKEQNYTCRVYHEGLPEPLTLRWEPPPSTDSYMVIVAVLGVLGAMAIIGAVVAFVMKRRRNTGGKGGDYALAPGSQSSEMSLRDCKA
T1 sequence (P01887 21-119 partner): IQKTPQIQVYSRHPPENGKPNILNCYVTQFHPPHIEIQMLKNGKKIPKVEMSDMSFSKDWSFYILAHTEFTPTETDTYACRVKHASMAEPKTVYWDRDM

| Sequence | percentage CD44hi tetramer+ of total live CD8+ T cells [1] | fold higher response than unmodified peptide ([1]; CD44hi tetramer+ of live CD8+ T cells, day 21, relative to unmodified EGP peptide) | response compared with background in unimmunized mice ([1]; day 21 tetramer staining, background 0.82%) | affinity for MHC relative to native form (EGS) (MHC (H2-Db)) |
| --- | --- | --- | --- | --- |
| DICLPRWGCLWGGGGSAVGALEGPRNQDWLGVPRQL [ABP-G4S-EGP] | 5.56% | approximately 4 fold |  |  |
| AVGALEGPRNQDWLGVPRQL (Synthetic EGP long peptide) [unmodified EGP peptide, altered peptide ligand form of melanoma antigen gp100] | 1.45% |  | not statistically different from background | enhanced affinity for MHC over the native form |
